Several values for one entry are separate records, joined by “and”; a condition that tells them apart may be missing. Equal entries are not always repeated.
How the values were obtained:
Type in all cases: in vivo
[1] = tested on: cotton aphid (CA) Aphis gossypii; assay: Cotton aphid track-sprayer test on cotton: Compound A or imidacloprid with Glyphomax Plus (glyphosate) and AMS (Example XV); settings: Rep 1-5
Method: (§1) Glyphosate resistant cotton plants (Gossypium hirsutum, cv ‘DP493’) were trimmed to 1 true leaf and infested with mixed stages of cotton aphid (CA) Aphis gossypii 24 h prior to application. Mixed developmental stage CA were infested onto the upper surface of each treated leaf by transferring infested foliage from an insectary colony. Each plant was infested with approximately equal numbers of CA based on visual estimation of aphid density on the infested material. Infested plants were held in the growth chamber (L:D 16:8 and 25° C.). Glyphosate (Glyphomax Plus, Dow AgroSciences, LLC, Indianapolis, Ind.) was mixed with water at a rate equivalent to 32 oz/Ac/20 gallons. […] High rate Compound A concentrations were created by diluting Compound A technical material with acetone to achieve a 10 ppm solution. […] When applied through a track sprayer calibrated to 200 L/Ha these concentrations generated use rates of 0.2, 0.04 and 0.008 g/Ha. […] Nozzle height above the canopy was held constant at ca. 30 cm. Plants were evaluated after 3 days from the time of infestation by counting all live cotton aphids on each plant.
For the purposes of this experiment, the compositions having lower rates of the insecticide were not analyzed. Percent control for all treatments was calculated using the rep average for the untreated plants. […] For all tests, measured efficacy (% Control) data were compared to calculated Colby values (Colby, S. R. 1967. Calculating Synergistic and Antagonistic Responses of Herbicide Combinations. Weeds 15:20-22) using a 2 sided T-test (Minitab). […] The formula used to calculate the Colby value for mixtures of Compound A and either herbicide or AMS was:
The formula was adapted for compositions including Compound A, herbicide and AMS as follows: […]

[2] = tested on: cotton aphid (CA) Aphis gossypii; assay: Cotton aphid track-sprayer test on cotton: Compound A or imidacloprid with Durango (glyphosate) or Durango Blank and AMS (Example XVI); settings: for % Control (Negatives to zero) Ave / % control Ave / Colbv predicted values Ave: average of 5 reps
Method: as §1, with “(Durango®,” for “(Glyphomax Plus,”, “15 ml/L (1.2 qt/Ac). […] A glyphosate free formulation of Durango® was prepared using these same mixing instructions.” for “32 oz/Ac/20 gallons.”, “When applied through a track sprayer calibrated to 200 L/Ha these concentrations generated use rates of 0.2, 0.04 and 0.008 g/Ha.” left out
[…] Percent control for all treatments was calculated using the rep average for the untreated plants.

[3] = tested on: cotton aphid (CA) Aphis gossypii; assay: Cotton aphid track-sprayer test on cotton: Compound A or imidacloprid with glufosinate (Liberty) and AMS (Example XVII); settings: for % control / % control Negatives to zero / Colby Predicted Values: Rep 1-6
Method: as §1, with “Glufosinate (Liberty®, Bayer CropScience, Monheim am Rhein, Germany)” for “Glyphosate (Glyphomax Plus, Dow AgroSciences, LLC, Indianapolis, Ind.)”, “5 ml/L (0.4 qt/Ac).” for “32 oz/Ac/20 gallons.”, “When applied through a track sprayer calibrated to 200 L/Ha these concentrations generated use rates of 0.2, 0.04 and 0.008 g/Ha.” left out
TABLE 6 contains the calculated Colby values for combinations of treatments as well as the outcome of statistical evaluations between predicted (Colby) and actual measured values. These T-test statistics were only calculated for the 0.2 and 0.05 g/Ha rates. […] These same trends were apparent when Compound A was applied with both glufosinate and AMS.

[4] = 0.2 g insecticide/Ha with Glyphomax Plus 0.0125 ml/ml + AMS 18 mg/ml
[5] = 0.2 g insecticide/Ha with Glyphomax Plus 0.0125 ml/ml
[6] = 0.0125 g insecticide/Ha with Durango 0.015 ml/ml + AMS 18 g/L
[7] = 0.0125 g insecticide/Ha with Durango 0.015 ml/ml
[8] = 0.0125 g insecticide/Ha with Durango Blank 0.015 ml/ml + AMS 18 g/L
[9] = 0.0125 g insecticide/Ha with Durango Blank 0.015 ml/ml
[10] = 0.05 g insecticide/Ha with Durango 0.015 ml/ml + AMS 18 g/L, Rep 1-5
[11] = 0.05 g insecticide/Ha with Durango 0.015 ml/ml + AMS 18 g/L
[12] = 0.05 g insecticide/Ha with Durango 0.015 ml/ml
[13] = 0.05 g insecticide/Ha with Durango Blank 0.015 ml/ml + AMS 18 g/L
[14] = 0.05 g insecticide/Ha with Durango Blank 0.015 ml/ml
[15] = 0.2 g insecticide/Ha with Durango 0.015 ml/ml + AMS 18 g/L, Rep 1-5
[16] = 0.2 g insecticide/Ha with Durango 0.015 ml/ml + AMS 18 g/L
[17] = 0.2 g insecticide/Ha with Durango 0.015 ml/ml, Rep 1-5
[18] = 0.2 g insecticide/Ha with Durango 0.015 ml/ml
[19] = 0.2 g insecticide/Ha with Durango Blank 0.015 ml/ml + AMS 18 g/L, Rep 1-5
[20] = 0.2 g insecticide/Ha with Durango Blank 0.015 ml/ml + AMS 18 g/L
[21] = 0.2 g insecticide/Ha with Durango Blank 0.015 ml/ml
[22] = 0.0125 g In./Ha + glufosinate 0.005 ml/ml + AMS 18 mg/ml
[23] = 0.05 g In./Ha + glufosinate 0.005 ml/ml
[24] = 0.05 g In./Ha + glufosinate 0.005 ml/ml + AMS 18 mg/ml
[25] = 0.2 g In./Ha + glufosinate 0.005 ml/ml
[26] = 0.2 g In./Ha + glufosinate 0.005 ml/ml + AMS 18 mg/ml
[27] = 0.2 g In./Ha, no glufosinate, no AMS

CC(c1ccc(C(F)(F)F)nc1)S(C)(=O)=NC#N (stereo not shown) [Compound A, [1-(6-Trifluoromethylpyridin-3-yl)ethyl](methyl)-oxido-λ^4-sulfanylidenecyanamide]
% control Negatives to zero [1, 4]: 94.9% and 100.0%
Calculated Colby values [1, 4]: 71.7 and 78.5 and 75.1 and 77.5 and 71.8
percent control [1, 4]: 100.0% and 94.9%
% control Negatives to zero [1, 5]: 96.2% and 100.0% and 91.7% and 98.1%
percent control [1, 5]: 100.0% and 91.7% and 98.1% and 96.2%
Calculated Colby values ([1]; 0.2 g insecticide/Ha with Glyphomax Plus 0.0125 ml/ml, expected additive control): 71.7 and 78.5 and 75.1 and 75.3 and 69.3
CA Counts ([1]; 0.2 g insecticide/Ha, no herbicide, no AMS, live aphids per plant after 3 days): 24 and 20 and 12 and 15 and 13
percent control ([1]; 0.2 g insecticide/Ha, no herbicide, no AMS, vs rep average of untreated plants): 71.7% and 78.5% and 75.1% and 75.3% and 69.3%
% Control (Negatives to zero) Ave [2, 6]: 23.8%
% control Ave [2, 6]: 11.7%
Colbv predicted values Ave [2, 6]: 48.0
% Control (Negatives to zero) Ave [2, 7]: 17.4%
% control Ave [2, 7]: 0.5%
Colbv predicted values Ave [2, 7]: 36.6
% Control (Negatives to zero) Ave [2, 8]: 26.5%
% control Ave [2, 8]: 25.1%
Colbv predicted values Ave [2, 8]: 56.2
% Control (Negatives to zero) Ave [2, 9]: 15.8%
% control Ave [2, 9]: −22.7%
Colbv predicted values Ave [2, 9]: 36.6
% control Ave ([2]; 0.0125 g insecticide/Ha, no herbicide, no AMS): 5.5%
% control [2, 10]: 68.6% and 52.3% and 68.2% and 65.8% and 35.3%
% control Negatives to zero [2, 10]: 68.6% and 52.3% and 68.2% and 65.8% and 35.3%
CA Counts [2, 10]: 37 and 49 and 36 and 25 and 48
% Control (Negatives to zero) Ave [2, 11]: 58.0%
% control Ave [2, 11]: 58.0%
Colbv predicted values Ave [2, 11]: 55.3
% Control (Negatives to zero) Ave [2, 12]: 14.2%
% control Ave [2, 12]: 9.1%
Colbv predicted values Ave [2, 12]: 45.2
% Control (Negatives to zero) Ave [2, 13]: 37.9%
% control Ave [2, 13]: 35.5%
Colbv predicted values Ave [2, 13]: 56.9
% Control (Negatives to zero) Ave [2, 14]: 36.1%
% control Ave [2, 14]: 36.1%
Colbv predicted values Ave [2, 14]: 43.6
% control Ave ([2]; 0.05 g insecticide/Ha, no herbicide, no AMS): 31.8%
% control [2, 15]: 97.5% and 100.0%
% control Negatives to zero [2, 15]: 97.5% and 100.0%
% Control (Negatives to zero) Ave [2, 16]: 99.5%
% control Ave [2, 16]: 99.5%
Colbv predicted values Ave [2, 16]: 72.8
% control [2, 17]: 89.8% and 96.1% and 76.1% and 91.8% and 96.0%
% control Negatives to zero [2, 17]: 89.8% and 96.1% and 76.1% and 91.8% and 96.0%
% Control (Negatives to zero) Ave [2, 18]: 90.0%
% control Ave [2, 18]: 90.0%
Colbv predicted values Ave [2, 18]: 70.5
% control [2, 19]: 66.9% and 97.1% and 76.1% and 79.5% and 74.4%
% control Negatives to zero [2, 19]: 68.9% and 97.1% and 76.1% and 79.5% and 74.4%
Colbv predicted values [2, 19]: 97.5 and 77.2 and 97.3 and 72.7 and 71.7
% Control (Negatives to zero) Ave [2, 20]: 78.8%
% control Ave [2, 20]: 78.8%
Colbv predicted values Ave [2, 20]: 83.3
% Control (Negatives to zero) Ave [2, 21]: 60.1%
% control Ave [2, 21]: 60.1%
Colbv predicted values Ave [2, 21]: 71.5
% control Ave ([2]; 0.2 g insecticide/Ha, no herbicide, no AMS): 50.2%
% control AVE ([3]; 0.0125 g In./Ha + glufosinate 0.005 ml/ml): 57.9%
% control AVE [3, 22]: 85.5%
Colby Predicted Values Ave ([3]; 0.0125 g In./Ha, combination with glufosinate): 48.7
Colby Predicted Values Ave ([3]; 0.0125 g In./Ha, combination with glufosinate and AMS): 56.8
% control AVE ([3]; 0.0125 g In./Ha, no glufosinate, no AMS): 22.9%
% control AVE [3, 23]: 82.1%
% control AVE [3, 24]: 91.8%
Colby Predicted Values Ave ([3]; 0.05 g In./Ha, combination with glufosinate): 63.4
Colby Predicted Values Ave ([3]; 0.05 g In./Ha, combination with glufosinate and AMS): 67.4
% control AVE ([3]; 0.05 g In./Ha, no glufosinate, no AMS): 60.2%
% control AVE [3, 25]: 95.3%
% control AVE [3, 26]: 96.6%
Colby Predicted Values Ave ([3]; 0.2 g In./Ha, combination with glufosinate): 85.7
Colby Predicted Values Ave ([3]; 0.2 g In./Ha, combination with glufosinate and AMS): 87.7
% control AVE [3, 27]: 87.0%
% control [3, 22]: 94.7% and 89.7% and 68.6% and 90.7% and 83.8% and 95.5%
% control Negatives to zero [3, 22]: 94.7% and 89.7% and 68.6% and 90.7% and 83.8% and 93.9%
% control [3, 23]: 81.3% and 80.2% and 72.9% and 99.2% and 77.0% and 89.4%
% control Negatives to zero [3, 23]: 81.3% and 80.2% and 72.9% and 99.2% and 77.0% and 89.4%
% control [3, 24]: 89.3% and 96.6% and 77.1% and 97.5% and 98.6% and 80.3%
% control Negatives to zero [3, 24]: 89.3% and 96.6% and 77.1% and 97.5% and 98.6% and 80.3%
% control [3, 25]: 97.3% and 95.7% and 93.2% and 94.6% and 86.4%
% control Negatives to zero [3, 25]: 97.3% and 95.7% and 93.2% and 94.6% and 86.4%
% control [3, 26]: 98.7% and 94.0% and 94.3% and 97.5% and 98.6% and 93.9%
% control Negatives to zero [3, 26]: 98.7% and 94.0% and 94.3% and 97.5% and 98.6% and 93.9%
Colby Predicted Values ([3]; 0.2 g In./Ha, first block of lines (combination with glufosinate)): 77.3 and 91.2 and 95.9 and 90.1 and 91.9 and 68.2
% control [3, 27]: 77.3% and 87.9% and 91.4% and 86.4% and 91.9% and 68.2%
Colby Predicted Values ([3]; 0.2 g In./Ha, second block of lines (combination with glufosinate and AMS)): 90.0 and 93.9 and 95.3 and 87.0 and 91.9 and 68.2

From patent US20130288897A1, “SYNERGISTIC PESTICIDAL COMPOSITIONS” (Dow AgroSciences LLC, priority 2012, published 2013)
